Columns and labels:
[1] = tested on: lorcaserin–saline-trained rats; experiment: Two-lever drug discrimination, lorcaserin (0.75 mg/kg) vs saline; assay type: in vivo, rat
Experimental: (§1) Experimentally naïve male Sprague-Dawley rats (n = 43; Envigo, Inc.) weighing 300–325 g at the beginning of the experiment were housed two per cage in a temperature- (21–23°C) and humidity- (45–50%) controlled environment; lighting was maintained under a 12-h light–dark cycle (0700–1900 h). Rats were maintained at 80–90% of their free-feeding weights by restricting access to water. Rats received water during daily training sessions (5–6 ml/rat/session), in the afternoon several hours after training (20 min), and over the weekend (36 h). Experiments were conducted during the light phase of the light–dark cycle (between 0900 and 1200 h) and were carried out in accordance with the National Institutes of Health Guide for the Care and Use of Laboratory Animals and with the approval of the Institutional Animal Care and Use Committee at University of Texas Medical Branch.
(§2) The procedures were conducted in commercially available two-lever operant chambers (Med Associates, St. Albans, VT). Each chamber was equipped with a water-filled dispenser mounted equidistantly between two retractable response levers on the wall and housed in a light- and soundproof cubicle. Illumination came from a 28-V house light; ventilation and masking noise were provided by a ventilation fan in the right-side wall. A computer with Med-PC IV software was used to run programs and record all experimental events.
(§3) Standard two-lever, water-reinforced drug discrimination procedures were used ([Appel and Cunningham, 1986]; [Callahan and Cunningham, 1995]; [Colpaert, 1999]). Three cohorts (n = 13–16/cohort) were trained to discriminate an injection of a training drug from saline (1.0 ml/kg, i.p.) administered 15 min before start of daily (Monday–Friday) training sessions. In one cohort (n = 14), rats were trained to discriminate the training drug lorcaserin (0.75 mg/kg, 1.0 ml/kg, i.p.) from saline. In a second cohort (n = 13), rats were trained to discriminate the training drug WAY163909 (0.75 mg/kg, 1.0 ml/kg, i.p.) from saline. In the third cohort, rats (n = 16) were trained to discriminate the training drug cocaine (5 mg/kg, 1.0 ml/kg, i.p.) from saline. Two rats in the lorcaserin–saline cohort were excluded from the present study due to failure to maintain the discrimination. Rats in the WAY163909–saline cohort also participated in additional studies ([Wild et al., 2018]); the WAY163909 dose–response curve was reevaluated between studies; a washout period was allowed, and no carryover effects were observed.
(§4) During this phase, only the stimulus-appropriate (drug or saline) lever was present. Training began under a fixed ratio 1 (FR 1) schedule of water reinforcement, and the FR requirement was incremented until all animals were responding reliably under an FR 20 schedule for each experimental condition. For half of the rats, left lever responses were reinforced after training drug administration, whereas right lever responses were reinforced after saline administration; conditions were reversed for the remaining animals. During this phase of training, drug and saline were administered irregularly with the restriction that neither condition prevailed for more than three consecutive sessions.
(§5) After responding stabilized, both levers were presented simultaneously during 15-min training sessions. The rats were required to respond on the stimulus-appropriate (correct) lever to obtain water reinforcement. There were no programmed consequences for responding on the incorrect lever. This phase of training continued until the performance of all rats attained criterion (defined as mean accuracies of at least 80% stimulus-appropriate responding for 10 consecutive sessions).
(§6) Test sessions were initiated and conducted once or twice per week following attainment of criterion. Training sessions were run during the intervening days to maintain discrimination accuracy. […]

rats = details: TAT-r3L4F 0.1 µmol/kg; ref Cunningham et al., 2011; Anastasio et al., 2013; cited from earlier work
From the text: (§7) Agonist binding to the 5-HT2CR results in dynamic changes in receptor conformation and induction of a variety of intracellular signaling pathways ([Berg et al., 1994]; [McGrew et al., 2002]; [Werry et al., 2005]; [Labasque et al., 2008]). Best characterized is coupling of the 5-HT2CR to Gαq/11 proteins to activate phospholipase Cβ (PLCβ), resulting in increased intracellular calcium (Cai ^2+) release, among various other signaling outcomes ([Millan et al., 2008]). One approach to selectively target the 5-HT2CR signaling is through protein–protein interactions that are selective for 5-HT2CR ove ...

[2] = effect mimicked by Ro-600175 and reversed by SB242084; ref Ji et al., 2006; cited from earlier work
From the text: as §7

[3] = tested on: cocaine–saline-trained rats; experiment: Two-lever drug discrimination, cocaine (5 mg/kg) vs saline; assay type: in vivo, rat
Experimental: as §1, §2, §3, §4, §5, §6

[4] = tested on: WAY163909–saline-trained rats; experiment: Two-lever drug discrimination, WAY163909 (0.75 mg/kg) vs saline; assay type: in vivo, rat
Experimental: as §1, §2, §3, §4, §5, §6

Substance: Ac-YGRKKRRPNPDQKPRRKKKEKR-NH2 [TAT-r3L4F, rat 5-HT2CR third-loop peptide r3L4F conjugated to TAT at the N terminus]
- drug-lever responding in combination with lorcaserin (0.5 mg/kg) ([1]; combination test, i.p., TAT-r3L4F 2 µmol/kg (p < 0.05), peptide 7 2, 5 µmol/kg): enhanced drug-lever responding
- response rate in combination with lorcaserin (0.5 mg/kg) ([1]; combination test, i.p., TAT-r3L4F 2 µmol/kg, peptide 7 2, 5 µmol/kg): no change in response rates
- drug-like responding ([1]; substitution test, i.p., TAT-r3L4F 1, 2 µmol/kg, peptide 7 1, 2, 5 µmol/kg (data not shown)): < 10%
- response rate in substitution test ([1]; vs previous lorcaserin maintenance session, WAY163909 0.75 mg/kg, TAT-r3L4F 2 µmol/kg (trend for 1 µmol/kg)): significantly higher
- efficacy of a subeffective dose of WAY163909 to suppress motor activity and impulsive action (rats): enhances the efficacy
- motor activity, peptide alone (rats): does not suppress motor activity on its own
- ∆9-tetrahydrocannabinol-induced conditioned place preference [2]: blocks
- stimulus effects of cocaine (2.5 mg/kg) and response rate, TAT-r3L4F in the absence of lorcaserin ([3]; TAT-r3L4F 1, 2 µmol/kg i.p. 45 min before test): did not alter the stimulus effects of cocaine or the associated response rate
- cocaine-appropriate responding, TAT-r3L4F plus lorcaserin (0.5 mg/kg) before cocaine (2.5 mg/kg) ([3]; TAT-r3L4F 1, 2 µmol/kg, p < 0.05 vs cocaine alone, not statistically different from lorcaserin alone plus cocaine): significantly reduced cocaine-appropriate responding
- lever responding in substitution test (low-dose series) ([3]; TAT-r3L4F alone 1, 2 µmol/kg, lorcaserin alone 0.5 mg/kg, data not shown): saline-appropriate responding
- response rates associated with cocaine (2.5 mg/kg) ([3]; lorcaserin alone 0.5 mg/kg, or TAT-r3L4F 1, 2 µmol/kg plus lorcaserin 0.5 mg/kg, p < 0.05): significantly suppressed the response rates
- response rate in substitution test (low-dose series) ([3]; vs previous cocaine maintenance session, TAT-r3L4F alone 1, 2 µmol/kg, lorcaserin alone 0.5 mg/kg, data not shown): significant reduction in response rates
- response rate in combination with WAY163909 (0.5 mg/kg) ([4]; combination test, TAT-r3L4F 1, 2 µmol/kg i.p.): no change in response rates
- drug-lever responding in combination with WAY163909 (0.5 mg/kg) ([4]; combination test, TAT-r3L4F 1, 2 µmol/kg i.p., p < 0.05): enhanced drug-lever responding
- response rate in substitution test ([4]; lorcaserin 1 mg/kg (vs saline), TAT-r3L4F 1, 2 µmol/kg (vs previous WAY163909 maintenance session)): significantly higher
- drug-like responding ([4]; substitution test, TAT-r3L4F 1, 2 µmol/kg i.p.): < 10%

Source: PMC6716272, “In Vivo and In Vitro Analyses of Novel Peptidomimetic Disruptors for the Serotonin 5-HT2C Receptor Interaction With Phosphatase and Tensin Homolog” (Frontiers in Pharmacology, 2019)
